In brackets after ≈: the same amount, converted by molar mass.
Columns and labels:
[1] = tested on: Entercoccus faecium 180-1; experiment: broth micro-dilution MIC; type: cell-based
Description: (§1) The MIC's were determined using a standard broth micro-dilution assay.

[2] = tested on: Staphylococcus aureus X400; experiment: broth micro-dilution MIC; type: cell-based
Description: as §1

[3] = tested on: Staphylococcus aureus 489; experiment: broth micro-dilution MIC; type: cell-based
Description: as §1

[4] = tested on: Staphylococcus aureus 447; experiment: broth micro-dilution MIC; type: cell-based
Description: as §1

[5] = tested on: Staphylococcus aureus X778; experiment: broth micro-dilution MIC; type: cell-based
Description: as §1

[6] = tested on: Staphylococcus aureus SA1199; experiment: broth micro-dilution MIC; type: cell-based
Description: as §1

[7] = tested on: Streptococcus pyogenes C203; experiment: broth micro-dilution MIC; type: cell-based
Description: as §1

[8] = tested on: Staphylococcus haemolyticus 105; experiment: broth micro-dilution MIC; type: cell-based
Description: (§2) The formula I compounds have in vitro and in vivo activity against Gram-positive pathogenic bacteria. The MIC's were determined using a standard broth micro-dilution assay.

[9] = tested on: Streptococcus pneumoniae P1; experiment: broth micro-dilution MIC; type: cell-based
Description: as §2

[10] = tested on: Enterococcus gallinarum 245; experiment: broth micro-dilution MIC; type: cell-based; settings: Enterococcus gallinarum 245
Description: as §2

[11] = tested on: Staphylococcus haemolyticus 415; experiment: broth micro-dilution MIC; type: cell-based
Description: as §2

[12] = tested on: Staphylococcus aureus S13E; type: cell-based
Description: as §1

[13] = tested on: Staphylococcus aureus SA1199B; type: cell-based
Description: as §1

[14] = tested on: vancomycin-susceptible enterococci; experiment: broth micro-dilution, mean geometric MIC; type: cell-based, Enterococcus faecium and Enterococcus faecalis; settings: enterococci, 24-hour incubation
[15] = tested on: vancomycin-resistant enterococci; experiment: broth micro-dilution, mean geometric MIC; type: cell-based, Enterococcus faecium and Enterococcus faecalis; settings: enterococci, 24-hour incubation
[16] = tested on: Streptococcus pneumoniae; experiment: mouse protection, experimentally-induced infection; type: in vivo; settings: mice infected with Streptococcus pneumoniae, two doses
[17] = tested on: Streptococcus pyogenes; experiment: mouse protection, experimentally-induced infection; type: in vivo; settings: mice infected with Streptococcus pyogenes, two doses
[18] = tested on: Staphylococcus aureus SA1199A; experiment: broth micro-dilution MIC; type: cell-based
Description: as §1

[19] = tested on: Staphylococcus aureus 491; experiment: broth micro-dilution MIC; type: cell-based
Description: as §1

[20] = tested on: Entercoccus faecium 276; experiment: broth micro-dilution MIC; type: cell-based
Description: as §1

[21] = tested on: Staphylococcus aureus 446; experiment: broth micro-dilution MIC; type: cell-based
Description: as §1

[22] = tested on: Staphylococcus epidermidis 270; experiment: broth micro-dilution MIC; type: cell-based
Description: as §2

[23] = tested on: Entercoccus faecium 2041; experiment: broth micro-dilution MIC; type: cell-based; settings: Entercoccus faecium 2041
Description: as §2

[24] = tested on: Entercoccus faecium 180; experiment: broth micro-dilution MIC; type: cell-based; settings: Entercoccus faecium 180
Description: as §2

SMILES	MIC [1] [µg/mL]	MIC [2] [µg/mL]	MIC [3] [µg/mL]	MIC [4] [µg/mL]	MIC [5] [µg/mL]	MIC [6] [µg/mL]	MIC [7] [µg/mL]	MIC [8] [µg/mL]	MIC [9] [µg/mL]	MIC [10] [µg/mL]	MIC [11] [µg/mL]	MIC [12] [µg/mL]	MIC [13]	mean geometric MIC, Vancomycin Sensitive Strains [14] [µg/mL]	mean geometric MIC, Vancomycin Resistant Strains [15] [µg/mL]	ED50 [16] [mg/kg/2]	ED50 [17] [mg/kg/2]	MIC [18]	MIC [22] [µg/mL]	MIC [23] [µg/mL]	further results
CCOc1cc(CNC2(C)CC(OC3C(Oc4c5cc6cc4Oc4ccc(cc4Cl)C(OC4CC(C)(N)C(O)C(C)O4)C4NC(=O)C(NC(=O)C6NC(=O)C(CC(N)=O)NC(=O)C(NC(=O)C(CC(C)C)NC)C(O)c6ccc(c(Cl)c6)O5)c5ccc(O)c(c5)-c5c(O)cc(O)cc5C(C(=O)O)NC4=O)OC(CO)C(O)C3O)OC(C)C2O)ccc1OCC1CCCCC1 (centres unmarked) [Compound 105]	≤ 0.06	0.5 (≈ 0.272 µM)	0.5 (≈ 0.272 µM)	0.5 (≈ 0.272 µM)	0.5 (≈ 0.272 µM)	1 (≈ 0.544 µM)	≤ 0.06	1 (≈ 0.544 µM)	≤ 0.06	1 (≈ 0.544 µM)	1 (≈ 0.544 µM)	0.5 (≈ 0.272 µM)	0.5 µg/mL (≈ 0.272 µM)	0.062	0.84	0.041	0.12				
CN[C@H](CC(C)C)C(=O)N[C@H]1C(=O)N[C@@H](CC(N)=O)C(=O)N[C@H]2C(=O)N[C@H]3C(=O)N[C@H](C(=O)N[C@H](C(=O)O)c4cc(O)cc(O)c4-c4cc3ccc4O)[C@H](O[C@H]3C[C@](C)(N)[C@@H](O)[C@H](C)O3)c3ccc(c(Cl)c3)Oc3cc2cc(c3O[C@@H]2O[C@H](CO)[C@@H](O)[C@H](O)[C@H]2O[C@H]2C[C@](C)(NCc3ccc(-c4ccc(C)cc4)cc3)[C@@H](O)[C@H](C)O2)Oc2ccc(cc2Cl)[C@H]1O [Compound 97]	≤ 0.06	1 (≈ 0.564 µM)		1 (≈ 0.564 µM)		2 (≈ 1.13 µM)	≤ 0.06	2 (≈ 1.13 µM)	≤ 0.06	2 (≈ 1.13 µM)	2 (≈ 1.13 µM)		1 µg/mL (≈ 0.564 µM)	0.054	0.71	0.038	0.066	≤ 0.06 µg/mL	1 (≈ 0.564 µM)	≤ 0.06	MIC [19]: 0.5 µg/mL (≈ 0.282 µM); MIC [20]: ≤ 0.06 µg/mL; MIC [21]: 1 µg/mL (≈ 0.564 µM)
CNC(CC(C)C)C(=O)NC1C(=O)NC(CC(N)=O)C(=O)NC2C(=O)NC3C(=O)NC(C(=O)NC(C(=O)O)c4cc(O)cc(O)c4-c4cc3ccc4O)C(OC3CC(C)(N)C(O)C(C)O3)c3ccc(c(Cl)c3)Oc3cc2cc(c3OC2OC(CO)C(O)C(O)C2OC2CC(C)(NCc3ccc(OCCCc4ccccc4)cc3)C(O)C(C)O2)Oc2ccc(cc2Cl)C1O (centres unmarked) [Compound 223]	≤ 0.06	1 (≈ 0.55 µM)	1 (≈ 0.55 µM)	0.5 (≈ 0.275 µM)	1 (≈ 0.55 µM)	2 (≈ 1.1 µM)	≤ 0.06	1 (≈ 0.55 µM)	≤ 0.06	1 (≈ 0.55 µM)	1 (≈ 0.55 µM)	0.5 (≈ 0.275 µM)	1 µg/mL (≈ 0.55 µM)	0.055	0.79	< 0.031	< 0.031	≤ 0.06 µg/mL	0.5 (≈ 0.275 µM)	≤ 0.06	MIC [24]: ≤ 0.06 µg/mL
CN[C@H](CC(C)C)C(=O)N[C@H]1C(=O)N[C@@H](CC(N)=O)C(=O)N[C@H]2C(=O)N[C@H]3C(=O)N[C@H](C(=O)N[C@H](C(=O)O)c4cc(O)cc(O)c4-c4cc3ccc4O)[C@H](O[C@H]3C[C@](C)(N)[C@@H](O)[C@H](C)O3)c3ccc(c(Cl)c3)Oc3cc2cc(c3O[C@@H]2O[C@H](CO)[C@@H](O)[C@H](O)[C@H]2O[C@H]2C[C@](C)(NCc3ccc(Oc4ccc(Cl)cc4)c([N+](=O)[O-])c3)[C@@H](O)[C@H](C)O2)Oc2ccc(cc2Cl)[C@H]1O [Compound 94]	≤ 0.06	1 (≈ 0.539 µM)	2 (≈ 1.08 µM)	0.5 (≈ 0.27 µM)	0.5 (≈ 0.27 µM)	0.5 (≈ 0.27 µM)	≤ 0.06	2 (≈ 1.08 µM)	≤ 0.06	2 (≈ 1.08 µM)	2 (≈ 1.08 µM)	2 (≈ 1.08 µM)	2 µg/mL (≈ 1.08 µM)	0.041	0.50	0.049	0.16	≤ 0.06 µg/mL	1 (≈ 0.539 µM)	≤ 0.06	MIC [19]: 0.5 µg/mL (≈ 0.27 µM); MIC [20]: 0.125 µg/mL (≈ 0.0674 µM); MIC [21]: 1 µg/mL (≈ 0.539 µM)
CN[C@H](CC(C)C)C(=O)N[C@H]1C(=O)N[C@@H](CC(N)=O)C(=O)N[C@H]2C(=O)N[C@H]3C(=O)N[C@H](C(=O)N[C@H](C(=O)O)c4cc(O)cc(O)c4-c4cc3ccc4O)[C@H](O[C@H]3C[C@](C)(N)[C@@H](O)[C@H](C)O3)c3ccc(cc3)Oc3cc2cc(c3O[C@@H]2O[C@H](CO)[C@@H](O)[C@H](O)[C@H]2O[C@H]2C[C@](C)(N)[C@@H](O)[C@H](C)O2)Oc2ccc(cc2Cl)[C@H]1O [Compound A82846A, A82846A, reference compound]	0.125 (≈ 0.0802 µM)	0.125 (≈ 0.0802 µM)	0.5 (≈ 0.321 µM)		0.125 (≈ 0.0802 µM)	0.125 (≈ 0.0802 µM)		0.5 (≈ 0.321 µM)		0.125 (≈ 0.0802 µM)	1 (≈ 0.642 µM)	0.125 (≈ 0.0802 µM)	≤ .06 µg/mL	1.7		0.39	0.084	≤ .06 µg/mL		0.125 (≈ 0.0802 µM)	MIC [20]: 0.125 µg/mL (≈ 0.0802 µM); MIC [24]: 16 µg/mL (≈ 10.3 µM)
CNC(CC(C)C)C(=O)NC1C(=O)NC(CC(N)=O)C(=O)NC2C(=O)NC3C(=O)NC(C(=O)NC(C(=O)O)c4cc(O)cc(O)c4-c4cc3ccc4O)C(OC3CC(C)(N)C(O)C(C)O3)c3ccc(c(Cl)c3)Oc3cc2cc(c3OC2OC(CO)C(O)C(O)C2OC2CC(C)(NCc3ccc(OCc4ccc([N+](=O)[O-])cc4)cc3)C(O)C(C)O2)Oc2ccc(cc2Cl)C1O (centres unmarked) [Compound 131]	≤ 0.06	1 (≈ 0.545 µM)	1 (≈ 0.545 µM)	1 (≈ 0.545 µM)	0.5 (≈ 0.273 µM)		≤ 0.06	1 (≈ 0.545 µM)	≤ 0.06	2 (≈ 1.09 µM)	2 (≈ 1.09 µM)	1 (≈ 0.545 µM)	1 µg/mL (≈ 0.545 µM)	0.028	0.84	0.077	< 0.031	≤ 0.06 µg/mL	1 (≈ 0.545 µM)	≤ 0.06	MIC [21]: 2 µg/mL (≈ 1.09 µM); MIC [24]: ≤ 0.06 µg/mL
CCCCCCCCCOc1ccc(CNC2(C)CC(OC3C(Oc4c5cc6cc4Oc4ccc(cc4Cl)C(OC4CC(C)(N)C(O)C(C)O4)C4NC(=O)C(NC(=O)C6NC(=O)C(CC(N)=O)NC(=O)C(NC(=O)C(CC(C)C)NC)C(O)c6ccc(c(Cl)c6)O5)c5ccc(O)c(c5)-c5c(O)cc(O)cc5C(C(=O)O)NC4=O)OC(CO)C(O)C3O)OC(C)C2O)cc1 (centres unmarked) [Compound 8]	0.5 (≈ 0.274 µM)	8 (≈ 4.38 µM)		8 (≈ 4.38 µM)	8 (≈ 4.38 µM)	2 (≈ 1.1 µM)	≤ 0.06	8 (≈ 4.38 µM)	≤ 0.06	8 (≈ 4.38 µM)	8 (≈ 4.38 µM)	8 (≈ 4.38 µM)			1.0	0.273	> 0.5	2 µg/mL (≈ 1.1 µM)	4 (≈ 2.19 µM)	4 (≈ 2.19 µM)	MIC [19]: 4 µg/mL (≈ 2.19 µM); MIC [20]: 4 µg/mL (≈ 2.19 µM); MIC [21]: 2 µg/mL (≈ 1.1 µM); MIC [24]: 1 µg/mL (≈ 0.548 µM)
